According to ChEMBL document CHEMBL6071145, “A novel theranostic strategy for myocardial infarction through neutralization of endogenous SO2 using an endoplasmic reticulum-targeted fluorescent probe” (Eur J Med Chem, 2024):
Active and inactive are the calls of the source. The rule behind the calls is not given here.

Experiments:
[1] = test system: H9c2; experiment: Cytotoxicity against rat H9c2 cells at 80 uM incubated for 48 hrs by CCK-8 assay; format: toxicity, cell-based; details: h9c2, 48 h
[2] = Drug uptake in male C57BL mouse model assessed as increase in fluorescence signal in apex cordis at 25 mg/kg; format: ADME, organism-based, Apex of heart; details: in vivo
[3] = test system: H9c2; experiment: Cardioprotective activity against H2O2 induced rat H9c2 cells preincubated with compound for 1 hr followed by H2O2 addition for 0.5 hr by confocal microscopic analysis; format: functional, cell-based; details: time 90.0 min
[4] = test system: H9c2; experiment: Cardioprotective activity against H2O2 induced rat H9C2 cells assessed as increase in green fluorescence at 5 to 50 uM preincubated with compound for 1 hr followed by H2O2 addition for 0.5 hr by confocal microscopic analysis; format: functional, cell-based; details: dose 5-50 µM, time 90.0 min
[5] = species: Mus musculus; experiment: Cardioprotective activity against myocardial infarction male C57BL mouse assessed as […] in apoptosis by TUNEL staining based analysis; format: functional, organism-based
[6] = Drug localization in nucleus of human A549 cells assessed as colocalization incubated for 20 mins by […] staining based analysis; format: ADME, subcellular; details: a549, 20 min
[7] = Drug localization in mitochondria of human A549 cells assessed as colocalization incubated for 20 mins by MitoTracker Green staining based analysis; format: ADME; details: a549, 20 min
[8] = Photostability of compound in human A549 cells at 5 uM measured within 3 min in the presence of light-irradition; format: ADME, cell-based; details: a549, 0.05 h
[9] = Drug uptake in human A549 cells assessed as increase in green channel at 5 to 100 uM pretreated with NaHSO3 for 1 hr followed by SO2 for 1 hr by confocal microscopic analysis; format: ADME, cell-based; details: a549, 2 h, dose 5-100 µM
[10] = test system: H9c2; experiment: Cardioprotective activity against H2O2 induced rat H9c2 cells assessed as production of BCL-2 protein at 0 to 50 uM preincubated with compound for 1 hr followed by H2O2 addition for 0.5 hr by Western blot analysis; format: functional, cell-based; details: dose 0-50 µM, time 90.0 min
[11] = Drug localization in endoplasmic reticulum of human A549 cells assessed as colocalization incubated for 20 mins by ER-Tracker Green staining based anlaysis; format: ADME, subcellular; details: a549, 20 min
[12] = test system: A549; experiment: Cytotoxicity against human A549 cells assessed as reduction in cell viability at 100 uM incubated for 48 hrs by CCK-8 assay; format: functional, cell-based
[13] = Drug uptake in human A549 cells assessed as increase in green channel at 5 uM treated with SO2 for 1 hr by confocal microscopic analysis; format: ADME, cell-based; details: a549, 1 h
[14] = Drug uptake in human A549 cells assessed as increase in fluorescence ratio at 5 uM pretreated with NaHSO3 for 1 hr followed by SO2 for 1 hr by confocal microscopic analysis; format: ADME, cell-based; details: a549, 2 h
[15] = species: Mus musculus; experiment: Cardioprotective activity against myocardial infarction male C57BL mouse assessed as increase in BCL-2 expression in peri-ischemic region by Western blot analysis; format: functional, organism-based
[16] = test system: H9c2; experiment: Cardioprotective activity against H2O2 induced rat H9c2 cells assessed as decrease in red fluorescence at 5 to 50 uM preincubated with compound for 1 hr followed by H2O2 addition for 0.5 hr by confocal microscopic analysis; format: functional, cell-based; details: dose 5-50 µM, time 90.0 min
[17] = species: Mus musculus; experiment: Cardioprotective activity against myocardial infarction male C57BL mouse assessed as decrease in tissue structure by HE staining based analysis; format: functional, organism-based
[18] = test system: L02; experiment: Cytotoxicity against human LO2 cells assessed as reduction in cell viability at 100 uM incubated for 48 hrs by CCK-8 assay; format: toxicity, cell-based; details: l02, 48 h
[19] = species: Mus musculus; experiment: Cardioprotective activity against myocardial infarction male C57BL mouse assessed as decrease in cardiac fibrosis by Masson staining based analysis; format: functional, organism-based
[20] = Drug uptake in human A549 cells assessed as increase in fluorescence ratio at 5 uM treated with SO2 for 1 hr by confocal microscopic analysis; format: ADME, cell-based; details: a549, 1 h
[21] = Drug localization in lysosomes of human A549 cells assessed as colocalization incubated for 20 mins by lysoTracker Green DND-26 staining based analysis; format: ADME, subcellular, Lysosome; details: a549, 20 min
[22] = Drug uptake in human A549 cells assessed as decrease in red channel at 5 to 100 uM pretreated with NaHSO3 for 1 hr followed by SO2 for 1 hr by confocal microscopic analysis; format: ADME, cell-based; details: a549, 2 h, dose 5-100 µM
[23] = species: Mus musculus; experiment: Cardioprotective activity against myocardial infarction male C57BL mouse assessed as increase in BCL-2 expression in ischemic region by Western blot analysis; format: functional, organism-based
[24] = Drug localization in golgi body of human A549 cells assessed as colocalization incubated for 20 mins by Golgi-Tracker Green staining based analysis; format: ADME, subcellular; details: a549, 20 min
[25] = Drug uptake in human A549 cells assessed as decrease in red channel at 5 uM treated with SO2 incubated for 1 hr by confocal microscopic analysis; format: ADME, cell-based; details: a549, 1 h

**Q.** Which results are given for `O=S(=O)([O-])CCCC[n+]1c(CC(c2ccc(N(c3ccccc3)c3ccccc3)cc2)S(=O)(=O)[O-])sc2ccccc21.[Na+]` (stereo unspecified)?
**A.** Activity [1]: Non-Toxic; Drug uptake [2]: Active; Activity [3]: inactive

**Q.** With `O=S(=O)([O-])CCCC[n+]1c(/C=C/c2ccc(N(c3ccccc3)c3ccccc3)cc2)sc2ccccc21` as the compound, how does the Activity [4] read?
**A.** Active

**Q.** What about the Activity [5] of the same compound?
**A.** Active

**Q.** And the Drug uptake [6]?
**A.** Not Active

**Q.** And the Drug uptake [7]?
**A.** Not Active

**Q.** And the Stability [8]?
**A.** Stable

**Q.** What about the Drug uptake [9] of the same compound?
**A.** Active

**Q.** What about the Activity [1] of the same compound?
**A.** Non-Toxic

**Q.** What about the Activity [10] of the same compound?
**A.** Active

**Q.** What about the Drug uptake [11] of the same compound?
**A.** Active

**Q.** And the Activity [12]?
**A.** Active

**Q.** What about the Drug uptake [13] of the same compound?
**A.** Active

**Q.** And the Drug uptake [14]?
**A.** Active

**Q.** What about the Activity [15] of the same compound?
**A.** Active

**Q.** What about the Activity [16] of the same compound?
**A.** Active

**Q.** And the Activity [17]?
**A.** Active

**Q.** What about the Activity [18] of the same compound?
**A.** Non-Toxic

**Q.** And the Activity [19]?
**A.** Active

**Q.** And the Drug uptake [20]?
**A.** Active

**Q.** What about the Drug uptake [21] of the same compound?
**A.** Not Active

**Q.** And the Drug uptake [22]?
**A.** Active

**Q.** And the Activity [23]?
**A.** Active

**Q.** And the Drug uptake [24]?
**A.** Not Active

**Q.** And the Drug uptake [25]?
**A.** Active
